# Reference: ChEMBL document CHEMBL5370548, “Discovery, optimization and biological evaluation of novel HBsAg production inhibitors” (Eur J Med Chem, 2023)
# Active and inactive are the calls of the source. The rule behind the calls is not given here.
# Legend:
# [1] = test system: Hepatitis B virus; test: Antiviral activity against HBV infected in human HepG2.2.15 cells assessed as inhibition of HBV DNA incubated for 6 days with replacement of fresh media for every 72 hrs by real-time qPCR analysis; format: functional, organism-based
# [2] = test system: Hepatitis B virus; test: Antiviral activity against HBV infected in human HepG2.2.15 cells assessed as inhibition of HBsAg level incubated for 6 days with replacement of fresh media for every 72 hrs by real-time qPCR analysis; format: functional, organism-based
# [3] = Cmax in ICR mouse at 10 mg/kg, IG by UPLC-MS/MS analysis; format: ADME, organism-based; set-up: dose 10 mg/kg, route ig; settings: in vivo, po
# [4] = Half life in ICR mouse at 1 mg/kg, iv by UPLC-MS/MS analysis; format: ADME, organism-based; settings: in vivo
# [5] = Clearance in ICR mouse at 1 mg/kg, iv by UPLC-MS/MS analysis; format: ADME, organism-based; settings: in vivo
# [6] = AUC (0 to infinity) in ICR mouse at 10 mg/kg, IG by UPLC-MS/MS analysis; format: ADME, organism-based; set-up: dose 10 mg/kg, route ig; settings: in vivo, po
# [7] = AUC (0 to t) in ICR mouse at 10 mg/kg, IG by UPLC-MS/MS analysis; format: ADME, organism-based; set-up: dose 10 mg/kg, route ig; settings: in vivo, po
# [8] = Half life in ICR mouse at 10 mg/kg, IG by UPLC-MS/MS analysis; format: ADME, organism-based; settings: in vivo, po
# [9] = AUC (0 to infinity) in ICR mouse at 1 mg/kg, iv by UPLC-MS/MS analysis; format: ADME, organism-based; set-up: dose 1 mg/kg, route iv; settings: in vivo
# [10] = Tmax in ICR mouse at 10 mg/kg, IG by UPLC-MS/MS analysis; format: ADME, organism-based; settings: in vivo, po
# [11] = Bioavailability in ICR mouse at 1 mg/kg, iv by UPLC-MS/MS analysis; format: ADME, organism-based; settings: in vivo
# [12] = Volume of distribution at steady state in ICR mouse at 1 mg/kg, iv by UPLC-MS/MS analysis; format: ADME, organism-based; settings: in vivo, read-out: Vdss
# [13] = AUC (0 to t) in ICR mouse at 1 mg/kg, iv by UPLC-MS/MS analysis; format: ADME, organism-based; set-up: dose 1 mg/kg, route iv; settings: in vivo
# [14] = Metabolic stability in human liver microsomes assessed as parent compound remaining at 1 uM measured upto 60 min in presence of NADPH by LC-MS/MS analysis; format: ADME, Microsome; settings: read-out: Stability
# [15] = Metabolic stability in human liver microsomes assessed as half life at 1 uM preincubated for 5 mins followed by NADPH addition and measured upto 60 min by LC-MS/MS analysis; format: ADME, Microsome; settings: time < 65 min
# [16] = Metabolic stability in mouse liver microsomes assessed as half life at 1 uM preincubated for 5 mins followed by NADPH addition and measured upto 60 min by LC-MS/MS analysis; format: ADME, Microsome; settings: time < 65 min
# [17] = Metabolic stability in mouse liver microsomes assessed as parent compound remaining at 1 uM measured upto 60 min in presence of NADPH by LC-MS/MS analysis; format: ADME, Microsome; settings: read-out: Stability
# [18] = Metabolic stability in mouse liver microsomes assessed as intrinsic clearance at 1 uM preincubated for 5 mins followed by NADPH addition and measured upto 60 min by LC-MS/MS analysis; format: ADME, Microsome; settings: time < 65 min, read-out: CLH
# [19] = test system: Hepatitis B virus; test: In vivo antiviral activity against HBV infected in uPA/SCID mouse assessed as reduction in serum HBsAg level at 10 mg/kg, po administered twice daily for 28 days; format: functional, organism-based; settings: time 28.0 day
# [20] = test system: HepG2 2.2.15; test: Cytotoxicity against human HepG2.2.15 cells by CCK-8 method; format: functional
# [21] = test system: Hepatitis B virus; test: In vivo antiviral activity against HBV infected in uPA/SCID mouse assessed as reduction in serum HBsAg level at 10 mg/kg, po administered twice daily for 21 days and measured upto 35 days; format: functional; settings: time <= 35 day
# [22] = Metabolic stability in human liver microsomes assessed as intrinsic clearance at 1 uM preincubated for 5 mins followed by NADPH addition and measured upto 60 min by LC-MS/MS analysis; format: ADME, Microsome; settings: time < 65 min, read-out: CLH
Compound,EC50 [1],EC50 [2],"remaining at 1 h, 1 µM [14]",half-life at 1 µM [15],also measured
COCCN(C)c1cc(F)nc(N2C[C@H]3CC[C@@H]2c2cnc(-c4ncccn4)nc23)c1,0.154 µM,0.244 µM,,,
COCCCOc1cc2c(cc1OC)-c1cc(=O)c(C(=O)O)cn1[C@H](C(C)C)C2,0.001 µM,0.006 µM,,,Cmax [3]: 1.1 µg/mL; half-life [4]: 0.653 h; clearance [5]: 2.87 L/h/kg; AUC(0-inf) [6]: 3.08 µg·h/mL; AUC(0-t) [7]: 3.06 µg·h/mL; half-life [8]: 1.12 h; AUC(0-inf) [9]: 0.349 µg·h/mL; Tmax [10]: 0.25 h; bioavailability [11]: 88.6%; Vd [12]: 2.7 L/kg; AUC(0-t) [13]: 0.346 µg·h/mL
"COc1cc(F)nc(N2[C@@H]3CCC[C@H]2c2cnc(-c4ncccn4)nc2C3)c1 (single isomer, unassigned)",0.015 µM,0.026 µM,,,
"COC1CN(c2cc(F)nc(N3[C@@H]4CCC[C@H]3c3cnc(-c5ncccn5)nc3C4)c2)C1 (single isomer, unassigned)",0.016 µM,0.016 µM,92.3%,> 3.33 h,"half-life at 1 µM [16]: > 3.33 h; remaining at 1 h, 1 µM [17]: 80.4%"
COCCN(C)c1cc(F)nc(N2C[C@@H]3CC[C@H]2c2cnc(-c4ncccn4)nc23)c1,1.09 µM,> 10 µM,,,
COC1CN(c2cc(F)nc(N3[C@H]4CC[C@@H]3c3cnc(-c5ncccn5)nc3C4)c2)C1,0.031 µM,0.116 µM,105%,> 3.33 h,
COCCOc1cc(F)nc(N2[C@H]3CC[C@@H]2c2cnc(-c4ncccn4)nc2C3)c1,0.044 µM,0.073 µM,,,
CN(C)c1cc(F)nc(N2[C@H]3CC[C@@H]2c2cnc(-c4ncccn4)nc2C3)c1,0.034 µM,0.041 µM,86.2%,> 3.33 h,"half-life at 1 µM [16]: 1.63 h; CLint scaled at 1 µM [18]: 3.37 L/h/kg; remaining at 1 h, 1 µM [17]: 63.9%"
COC1CCN(c2cc(F)nc(N3[C@H]4CC[C@@H]3c3cnc(-c5ncccn5)nc3C4)c2)C1 (some centres undefined),0.189 µM,0.193 µM,,,
COCCN(C)c1cc(F)nc(N2[C@H]3CC[C@@H]2c2cnc(-c4ncccn4)nc2C3)c1,0.021 µM,0.031 µM,,,
Fc1cc(N2CCOCC2)cc(N2[C@H]3CC[C@@H]2c2cnc(-c4ncccn4)nc2C3)n1,0.039 µM,0.054 µM,,,
"CN(C)c1cc(F)nc(N2[C@@H]3CCC[C@H]2c2cnc(-c4ccccn4)nc2C3)c1 (single isomer, unassigned)",> 10 µM,> 10 µM,,,
"Fc1cc(N2CC(F)C2)cc(N2[C@@H]3CCC[C@H]2c2cnc(-c4ncccn4)nc2C3)n1 (single isomer, unassigned)",0.007 µM,0.012 µM,,,
Fc1cc(N2CC(F)C2)cc(N2[C@H]3CC[C@@H]2c2cnc(-c4ncccn4)nc2C3)n1,0.018 µM,0.044 µM,99.7%,> 3.33 h,Activity [19]: Active; Cmax [3]: 9.58 µg/mL; half-life [4]: 1.16 h; clearance [5]: 0.293 L/h/kg; AUC(0-inf) [6]: 27.4 µg·h/mL; AUC(0-t) [7]: 27.4 µg·h/mL; half-life [8]: 1.23 h; CC50 [20]: > 100 µM; Activity [21]: 1.08 log10/ml; AUC(0-inf) [9]: 3.41 µg·h/mL; Tmax [10]: 0.25 h; bioavailability [11]: 80.2%; Vd [12]: 0.49 L/kg; AUC(0-t) [13]: 3.41 µg·h/mL
COCCNc1cc(F)nc(N2[C@H]3CC[C@@H]2c2cnc(-c4ncccn4)nc2C3)c1,0.111 µM,0.094 µM,,,
"CS(=O)(=O)N1CCN(c2cc(F)nc(N3[C@@H]4CCC[C@H]3c3cnc(-c5ncccn5)nc3C4)c2)CC1 (single isomer, unassigned)",0.075 µM,0.025 µM,94%,> 3.33 h,"half-life at 1 µM [16]: > 3.33 h; remaining at 1 h, 1 µM [17]: 85.7%"
"CN(C)c1cc(F)nc(N2[C@@H]3CCC[C@H]2c2cnc(-c4ncccn4)nc2C3)c1 (single isomer, unassigned)",0.002 µM,0.014 µM,69%,1.93 h,"Cmax [3]: 9.9 µg/mL; half-life [4]: 1.65 h; half-life at 1 µM [16]: 1.12 h; CLint scaled at 1 µM [18]: 4.88 L/h/kg; clearance [5]: 0.4 L/h/kg; AUC(0-inf) [6]: 31.9 µg·h/mL; AUC(0-t) [7]: 31 µg·h/mL; remaining at 1 h, 1 µM [17]: 52.4%; half-life [8]: 1.95 h; Activity [21]: 0.74 log10/ml; CLint scaled at 1 µM [22]: 0.642 L/h/kg; AUC(0-inf) [9]: 2.49 µg·h/mL; Tmax [10]: 0.5 h; bioavailability [11]: 125%; Vd [12]: 0.96 L/kg; AUC(0-t) [13]: 2.48 µg·h/mL"
CN(C)c1cc(N2[C@H]3CC[C@@H]2c2cnc(-c4ncccn4)nc2C3)cc(F)n1,0.089 µM,2.45 µM,,,
Fc1cc(NCC2CC2)cc(N2[C@H]3CC[C@@H]2c2cnc(-c4ncccn4)nc2C3)n1,0.105 µM,0.106 µM,,,
"Fc1cc(N2CC(F)C2)cc(N2[C@@H]3CCC[C@H]2c2cnc(-c4ccccn4)nc2C3)n1 (single isomer, unassigned)",> 10 µM,> 10 µM,,,
COc1cc(N2[C@H]3CC[C@@H]2c2cnc(-c4ncccn4)nc2C3)cc(F)c1F,0.169 µM,0.443 µM,99.1%,> 3.33 h,
